Measured values from article PMC10953043, “Fluorogenic Granzyme A Substrates Enable Real‐Time Imaging of Adaptive Immune Cell Activity” (Angewandte Chemie (Weinheim an Der Bergstrasse, Germany), 2023).

Biological target: T1, human GzmA (hGzmA), active recombinant (Homo sapiens, UniProt P12544)
T1 construct: active recombinant enzyme (not the pro-form), dimeric
T1 sequence (P12544 29-262): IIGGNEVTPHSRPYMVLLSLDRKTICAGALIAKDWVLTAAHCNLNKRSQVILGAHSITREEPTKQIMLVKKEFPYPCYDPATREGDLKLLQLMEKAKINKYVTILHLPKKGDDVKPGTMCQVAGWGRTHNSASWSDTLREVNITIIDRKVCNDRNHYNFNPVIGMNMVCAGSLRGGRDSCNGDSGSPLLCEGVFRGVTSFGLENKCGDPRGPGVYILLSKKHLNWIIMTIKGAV
Assay: fluorogenic assay with compound […] as substrate
Format: biochemical
Conditions: 100 μM inhibitor, 20 μM compound 9, 20 nM hGzmA, Tris buffer pH 8; covalent

## O=c1oc(Cl)c(Cl)c2ccccc12 [3,4‐dichloroisocoumarin]
  % decrease of the fluorescence signal: > 90%
